This passage reports TGI and GI50 results from PubChem BioAssay (NCI).

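48-hour exposure; five concentrations; linearly interpolated endpoints. GI50 marks 50% less growth. Definition used: TGI = concentration required for complete inhibition of growth.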 Bounds are passed on as bounds.

Some test systems named below: HCT-15 colon; UACC-62 melanoma; UO-31 renal; NCI-H226 lung; SK-MEL-28 melanoma; HOP-92 NSCLC; SF-539 CNS; HCT-116 colon; A498 renal; SK-MEL-2 melanoma.
What all share (assay): NCI tumour cell line growth inhibition, 48 h

For `COC(=O)c1nc(N)[nH]c(=O)c1-c1ccc(Cl)cc1`, the TGI in the assay on HCT-15 colon, with UACC-62 melanoma, in the assay with UO-31 renal, in the assay with NCI-H226 lung, in the assay with SK-MEL-28 melanoma and in the assay on HOP-92 NSCLC was more than 100 µM each time. Moreover, the TGI in the assay on SF-539 CNS, with HCT-116 colon, with A498 renal and in the assay on SK-MEL-2 melanoma was more than 100 µM in each case.

On to `CC(C)n1c2c(c3ccccc3c1=O)C(=O)c1ccccc1-2`, for which the TGI in the assay with HCT-15 colon, with UACC-62 melanoma, in the assay with UO-31 renal, with NCI-H226 lung, with SK-MEL-28 melanoma and in the assay on HOP-92 NSCLC was more than 100 µM each time. The TGI with SF-539 CNS, with HCT-116 colon, in the assay with A498 renal and in the assay with SK-MEL-2 melanoma was more than 100 µM each time.

For `O=C(/C=C(\O)C(=O)O)/C=C(\O)c1ccc(Cl)cc1`, the TGI in the assay on HCT-15 colon, with UACC-62 melanoma, in the assay on UO-31 renal, with NCI-H226 lung, in the assay on SK-MEL-28 melanoma and in the assay on HOP-92 NSCLC was more than 100 µM each time. Also, the TGI in the assay with SF-539 CNS, in the assay on HCT-116 colon, with A498 renal and with SK-MEL-2 melanoma was more than 100 µM in each case.

In the case of `NC(N)=Nc1nc2cc(N)ccc2o1`, the TGI in the assay on HCT-15 colon, in the assay with UACC-62 melanoma, in the assay with UO-31 renal, in the assay on NCI-H226 lung, with SK-MEL-28 melanoma and in the assay on HOP-92 NSCLC was more than 100 µM each time. The TGI in the assay on SF-539 CNS, with HCT-116 colon, in the assay with A498 renal and in the assay on SK-MEL-2 melanoma was more than 100 µM in each case.

Take `COC1=CC(=O)c2c(O)c3c(c(O)c2C1=O)CC(C)(O)OC3` (centres undefined): the TGI with HCT-15 colon came to 9.08 µM; in the assay on UACC-62 melanoma it was 7.35 µM; in the assay on UO-31 renal it was 15.2 µM; in the assay with NCI-H226 lung it was 37.2 µM; in the assay on SK-MEL-28 melanoma, 31.5 µM; in the assay with HOP-92 NSCLC, 10.5 µM. For the same molecule, the TGI with SF-539 CNS came out at 9.66 µM; with HCT-116 colon, 10.6 µM; in the assay with A498 renal it was 25.2 µM; in the assay with SK-MEL-2 melanoma, 9.9 µM.

With `COc1ccc(NC(=O)CC(=O)n2nc(-c3ccccc3)c(N=Nc3ccc(C)cc3)c2-c2ccccc2)cc1`, the TGI was more than 100 µM in the assay with HCT-15 colon; 49.5 µM with UACC-62 melanoma; 55.3 µM with UO-31 renal; 58.3 µM in the assay with NCI-H226 lung; more than 100 µM in the assay with SK-MEL-28 melanoma; 40.6 µM in the assay on HOP-92 NSCLC. The TGI with SF-539 CNS is 44 µM; in the assay on HCT-116 colon, more than 71 µM; in the assay with A498 renal, more than 76.5 µM; in the assay on SK-MEL-2 melanoma, 65.2 µM.

Take `N=C(N)c1ccc(-c2ccc(-c3ccco3)o2)cc1`: the GI50 in the assay with HCT-15 colon is 2.58 µM; in the assay with UACC-62 melanoma, 1.82 µM; with UO-31 renal, 3.17 µM; with NCI-H226 lung, 14.4 µM; with SK-MEL-28 melanoma, 2.31 µM; in the assay with HOP-92 NSCLC, 1.38 µM. The GI50 in the assay on SF-539 CNS is 8.96 µM; in the assay on HCT-116 colon, 3.04 µM; in the assay with A498 renal it was 6.58 µM; with SK-MEL-2 melanoma it was 2.41 µM. Further, the TGI in the assay with HCT-15 colon is 7.22 µM; with UACC-62 melanoma, 3.9 µM; with UO-31 renal, 16.3 µM; in the assay with NCI-H226 lung, 33.1 µM; with SK-MEL-28 melanoma, 6.22 µM; with HOP-92 NSCLC, 4.7 µM. Further, the TGI with SF-539 CNS is 21.5 µM; with HCT-116 colon, 10.3 µM; in the assay with A498 renal it was 20 µM; with SK-MEL-2 melanoma it was 4.65 µM.

As to `N#CC1(Cc2ccccc2Cl)c2ccccc2C=CN1C(=O)c1ccccc1` (centres undefined), the TGI in the assay on HCT-15 colon, in the assay on UACC-62 melanoma, with UO-31 renal, with NCI-H226 lung, in the assay on SK-MEL-28 melanoma and in the assay with HOP-92 NSCLC was more than 100 µM in each case. Further, the TGI in the assay with SF-539 CNS, with HCT-116 colon, in the assay with A498 renal and with SK-MEL-2 melanoma was more than 100 µM throughout.

As to `COC1=C(NC(C)=O)C(=O)c2nc3n(c2C1=O)CCC3`, the TGI in the assay on HCT-15 colon was 53.4 µM; in the assay on UACC-62 melanoma, 32.4 µM; in the assay on UO-31 renal, 47.1 µM; in the assay with NCI-H226 lung, 49.4 µM; in the assay with SK-MEL-28 melanoma, 32.9 µM; in the assay with HOP-92 NSCLC, 26.2 µM. The TGI with SF-539 CNS stood at 32.9 µM; with HCT-116 colon it was 29.4 µM; in the assay with A498 renal, 50.2 µM; in the assay with SK-MEL-2 melanoma, 32.7 µM.

Take `COc1cccc(-n2cnc3c(N/N=C/c4ccncc4)ncnc32)c1`: the GI50 is 9.83 µM with HCT-15 colon; 8.2 µM in the assay on UACC-62 melanoma; 8.26 µM with UO-31 renal; more than 23.9 µM in the assay with NCI-H226 lung; 13 µM in the assay on SK-MEL-28 melanoma; more than 10.4 µM with HOP-92 NSCLC. Moreover, the GI50 was more than 18.9 µM in the assay on SF-539 CNS, 15.1 µM in the assay on HCT-116 colon, 7.1 µM with A498 renal and 11.6 µM in the assay on SK-MEL-2 melanoma. Also, the TGI in the assay on HCT-15 colon, with UACC-62 melanoma, in the assay on UO-31 renal, in the assay with NCI-H226 lung, in the assay with SK-MEL-28 melanoma and with HOP-92 NSCLC was more than 25 µM in each case. For the same molecule, the TGI in the assay with SF-539 CNS was more than 25 µM; in the assay on HCT-116 colon, more than 25 µM; in the assay on A498 renal, more than 23.2 µM; in the assay with SK-MEL-2 melanoma, more than 25 µM.

Turning to `CC(=O)c1c[nH]c2ccc(-c3ccnc(Nc4ccc(NC(=O)c5cccc(F)c5)c(CN5CCOCC5)c4)n3)cc12`, the GI50 was 0.112 µM in the assay with HCT-15 colon; 0.127 µM with UACC-62 melanoma; 0.0961 µM in the assay with UO-31 renal; 0.148 µM in the assay on NCI-H226 lung; 0.233 µM in the assay on SK-MEL-28 melanoma; 0.154 µM in the assay with HOP-92 NSCLC. For the same molecule, the GI50 in the assay on SF-539 CNS was 0.0809 µM; in the assay on HCT-116 colon it was 0.0608 µM; with A498 renal, 0.102 µM; with SK-MEL-2 melanoma it was 0.18 µM. Also, the TGI with UACC-62 melanoma worked out at 0.43 µM; in the assay with UO-31 renal, 1.75 µM; in the assay with NCI-H226 lung it was 1.76 µM; in the assay with SK-MEL-28 melanoma, 4.25 µM; with HOP-92 NSCLC it was 1.17 µM; in the assay with SF-539 CNS, 0.457 µM. The TGI in the assay with HCT-116 colon turned out to be 14.7 µM; in the assay with A498 renal, 0.38 µM; with SK-MEL-2 melanoma it was 0.549 µM.
